Results from patent US20050118564A1, “Methods and compositions for identification and therapeutic use of genes involved in vascular and proliferative diseases” (priority 2002, published 2005).

How the values were obtained:
Assay type in all cases: cell-based
[1] = system: Endothelial and smooth muscle cells grown together; assay: IL-6 expression in co-cultures of endothelial and smooth muscle cells; conditions: endothelial and smooth muscle cells mixed (1:1, 1:2, 1:4) or layered; TNFα 1 ng/ml
Procedure: Endothelial and smooth muscle cells were grown together in culture media (Basal medium from Clonetics) containing 0.2% albumin. The cells had either nothing added, 1ng/ml TNFα, 1 nM insulin or TNFα and insulin. The media were collected and the amount of IL-6 and MCP-1 was measured.

Smooth muscle cells [2] = assay: MCP-1 secretion by smooth muscle cells exposed to disease stimuli; conditions: 1 ng/ml TNF-α, 1 nM insulin, alone or together
[3] = system: Human aortic endothelial cells (HAEC); assay: VCAM-1 expression in human aortic endothelial cells exposed to disease stimuli; conditions: 16 hrs, 1 ng/ml TNF-α, 1 nM insulin, alone or together
Procedure: (§1) Human aortic endothelial cells (HAEC) were grown with culture medium (Basal medium from Clonetics) containing 0.2% albumin with or without 1 ng/ml TNF-α or 100 μg/ml glycated-human serum albumin (HAS) or 1 nM insulin for 16 hrs. Media were collected and the amounts of […] (DuoSet ELISA development kit—R&D Systems) and MCP-1 (Quantiline Human MCP-1 kit—R&D Systems) were measured. VCAM-1 expression was measured by incubating […] with a polyclonal goat anti-human VCAM-1 antibody (R&D Systems, 1:1000 dilution) followed by development with a rabbit anti-goat IgG-conjugated with horseradish peroxidase (HRP).

Smooth muscle cells [4] = assay: IL-6 secretion by smooth muscle cells exposed to disease stimuli; conditions: 1 ng/ml TNF-α, 1 nM insulin, alone or together
[5] = system: Human aortic endothelial cells (HAEC); assay: MCP-1 secretion by human aortic endothelial cells exposed to disease stimuli (ELISA); conditions: 16 hrs, stimulus alone: 1 ng/ml TNF-α, 1 nM insulin or 100 μg/ml glycated HSA
Procedure: as §1

Substance	stimulus-induced IL-6 expression in co-culture versus cells cultured separately [1]	induction of MCP-1 expression (Smooth muscle cells [2])	effect on VCAM-1 gene expression [3]	induction of IL-6 expression (Smooth muscle cells [4])	increase in MCP-1 secretion [5]
interleukin-1: cytokine used as disease stimulus in co-cultures (FIG. 8: IL-1β)	neither interleukin-1 nor glycated albumin/advanced glycation end products (AGE) showed enhanced induction	–	–	–	–
Insulin: hormone used as vascular disease stimulus, 1 nM	–	only moderate induction	no effect	only moderate induction	40%
TNF-α	greatly enhanced	only moderate induction	2.8 fold	only moderate induction	about 400%
